Reference: PubChem BioAssay (NCI)
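Where inhibition never reached the appropriate level, the endpoint shown equals the highest concentration tested. Otherwise, values were interpolated linearly from a five-concentration, 48-hour dose response in 96-well plates. Here, GI50 denotes the concentration required for 50% inhibition of growth. The concentration for full growth arrest is given as TGI.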

Key:
Assay in all cases: inhibition of tumour cell growth, NCI panel, 48 h
[1] = tested on: 786-0 renal
[2] = tested on: A498 renal
[3] = tested on: A549 NSCLC
[4] = tested on: ACHN renal
[5] = tested on: BT-549 breast
[6] = tested on: CAKI-1 renal
[7] = tested on: CCRF-CEM leukemia
[8] = tested on: COLO 205 colon
[9] = tested on: DU-145 prostate
[10] = tested on: EKVX NSCLC
[11] = tested on: HCC-2998 colon
[12] = tested on: HCT-116 colon
[13] = tested on: HCT-15 colon
[14] = tested on: HL-60(TB) leukemia
[15] = tested on: HOP-62 NSCLC
[16] = tested on: HOP-92 NSCLC
[17] = tested on: HS 578T breast
[18] = tested on: HT29 colon
[19] = tested on: IGROV1 ovarian
[20] = tested on: K-562 leukemia
[21] = tested on: KM12 colon
[22] = tested on: LOX IMVI melanoma
[23] = tested on: M14 melanoma
[24] = tested on: MALME-3M melanoma
[25] = tested on: MCF7 breast
[26] = tested on: MDA-MB-231 breast
[27] = tested on: MDA-MB-435
[28] = tested on: MDA-MB-468 breast
[29] = tested on: MOLT-4 leukemia
[30] = tested on: NCI-H226 lung
[31] = tested on: NCI-H23 lung
[32] = tested on: NCI-H460 lung
[33] = tested on: NCI-H522 lung
[34] = tested on: NCI/ADR-RES ovarian
[35] = tested on: OVCAR-3 ovarian
[36] = tested on: OVCAR-4 ovarian
[37] = tested on: OVCAR-5 ovarian
[38] = tested on: OVCAR-8 ovarian
[39] = tested on: PC-3 prostate
[40] = tested on: RPMI-8226 leukemia
[41] = tested on: RXF 393 renal
[42] = tested on: SF-268 CNS
[43] = tested on: SF-295 CNS
[44] = tested on: SF-539 CNS
[45] = tested on: SK-MEL-2 melanoma
[46] = tested on: SK-MEL-28 melanoma
[47] = tested on: SK-MEL-5 melanoma
[48] = tested on: SK-OV-3 ovarian
[49] = tested on: SN12C renal
[50] = tested on: SNB-19 CNS
[51] = tested on: SNB-75 CNS
[52] = tested on: SR leukemia
[53] = tested on: SW-620 colon
[54] = tested on: T-47D breast
[55] = tested on: TK-10 renal
[56] = tested on: U251 CNS
[57] = tested on: UACC-257 melanoma
[58] = tested on: UACC-62 melanoma
[59] = tested on: UO-31 renal

`COc1cc2c3c(n(CCCNCCO)c(=O)c2cc1OC)-c1nc2c(cc1C3=O)OCO2` was tested, and the GI50 [1] was 2.43 µM, the TGI [1] was 11.8 µM and the GI50 [2] was 13.4 µM. The TGI [2] was 27.2 µM, the GI50 [3] was 6.72 µM and the TGI [3] was 21.6 µM. It also gave a GI50 [4] of 3.46 µM, a TGI [4] of 14 µM and a GI50 [5] of 6.31 µM. The TGI [5] was 20.5 µM, the GI50 [6] was 2.39 µM and the TGI [6] was 16.5 µM. It also gave a GI50 [7] of 0.262 µM, a TGI [7] of 1.86 µM and a GI50 [8] of 5.88 µM. For the same molecule, the TGI [8] was 21.9 µM, the GI50 [9] was 2.71 µM and the TGI [9] was 14.1 µM. The GI50 [10] was 7.47 µM, the TGI [10] was 21.2 µM and the GI50 [11] was 2.14 µM. The TGI [11] was 13.2 µM, the GI50 [12] was 1.25 µM and the TGI [12] was 2.67 µM. It also gave a GI50 [13] of 9.17 µM, a TGI [13] of 27.9 µM and a GI50 [14] of 0.64 µM. For the same molecule, the TGI [14] was 12.2 µM, the GI50 [15] was 0.416 µM and the TGI [15] was 4.48 µM. It also gave a GI50 [16] of 9.2 µM, a TGI [16] of 23.3 µM and a GI50 [17] of 11.6 µM. It also gave a TGI [17] of 31.6 µM, a GI50 [18] of 2.69 µM and a TGI [18] of 11.3 µM. The GI50 [19] was 11.4 µM, the TGI [19] was 26.2 µM and the GI50 [20] was 1.56 µM. It also gave a TGI [20] of 15 µM, a GI50 [21] of 14.2 µM and a TGI [21] of 33.2 µM. The GI50 [22] was 0.534 µM, the TGI [22] was 1.98 µM and the GI50 [23] was 4.35 µM. The TGI [23] was 16.8 µM, the GI50 [24] was 5.08 µM and the TGI [24] was 19.6 µM. The GI50 [25] was 0.256 µM, the TGI [25] was 8.62 µM and the GI50 [26] was 11.3 µM. For the same molecule, the TGI [26] was 24.5 µM, the GI50 [27] was 8.89 µM and the TGI [27] was 22.5 µM. It also gave a GI50 [28] of 1.41 µM, a TGI [28] of 3.21 µM and a GI50 [29] of 0.364 µM. It also gave a TGI [29] of 34.8 µM, a GI50 [30] of 1.54 µM and a TGI [30] of 6.62 µM. The GI50 [31] was 0.582 µM, the TGI [31] was 3.27 µM and the GI50 [32] was 1.22 µM. The TGI [32] was 11.8 µM, the GI50 [33] was 0.886 µM and the TGI [33] was 3.04 µM. It also gave a GI50 [34] of 58.1 µM, a TGI [34] greater than 100 µM and a GI50 [35] of 5.65 µM. For the same molecule, the TGI [35] was 20.8 µM, the GI50 [36] was 13 µM and the TGI [36] was 49.5 µM. It also gave a GI50 [37] of 4.39 µM, a TGI [37] of 15.4 µM and a GI50 [38] of 3.61 µM. The TGI [38] was 17.9 µM, the GI50 [39] was 3.06 µM and the TGI [39] was 19.1 µM. For the same molecule, the GI50 [40] was 2.54 µM, the TGI [40] was 14.8 µM and the GI50 [41] was 1.83 µM. The TGI [41] was 7.21 µM, the GI50 [42] was 3.24 µM and the TGI [42] was 19.9 µM. It also gave a GI50 [43] of 0.702 µM, a TGI [43] of 12 µM and a GI50 [44] of 0.996 µM. It also gave a TGI [44] of 3.24 µM, a GI50 [45] of 17.7 µM and a TGI [45] of 33 µM. It also gave a GI50 [46] of 13.5 µM, a TGI [46] of 26.9 µM and a GI50 [47] of 1.54 µM. For the same molecule, the TGI [47] was 10.5 µM, the GI50 [48] was 3.27 µM and the TGI [48] was 12.4 µM. For the same molecule, the GI50 [49] was 3.94 µM, the TGI [49] was 16.4 µM and the GI50 [50] was 2.52 µM. For the same molecule, the TGI [50] was 14.6 µM, the GI50 [51] was 0.83 µM and the TGI [51] was 28.2 µM. The GI50 [52] was 0.624 µM, the TGI [52] was 11.3 µM and the GI50 [53] was 2.01 µM. For the same molecule, the TGI [53] was 16.8 µM, the GI50 [54] was 1.13 µM and the TGI [54] was 12.9 µM. For the same molecule, the GI50 [55] was 19 µM, the TGI [55] was 46 µM and the GI50 [56] was 0.82 µM. The TGI [56] was 10.7 µM, the GI50 [57] was 15.4 µM and the TGI [57] was 31.2 µM. The GI50 [58] was 2.38 µM, the TGI [58] was 12.8 µM and the GI50 [59] was 7.47 µM. It also gave a TGI [59] of 21.7 µM.
